Data set [1] concerns HeLa cells. Nature of the data set: Confocal imaging of TAMRA-R8 / TAMRA-D-R8 / TAMRA uptake in living cells. From the text: Representative images of two biological replicates. […] Scale bars, 50 μm.
Representative images of two biological replicates. […] Source data
(1 picture or pasted object on this page, not shown here)

A short description of data set [2]: Carboxyfluorescein (CF) leakage assay, anionic vesicles. The note with it: anionic liposomes DMPE/DPPG/CHOL 1/2/1, 13 µM phospholipids, 10 mM Tris, 140 mM NaCl, pH 7.4; CF fluorescence; Hill analysis; read-out: EC50 membrane-disrupting activity (CF leakage). The protocol:
A thin lipid film was prepared by evaporating a lipid solution with a stream of nitrogen and then dried in vacuo overnight. For the zwitterionic vesicles, 25 mg EYPC in 1 ml of CHCl3 was used, and for the anionic vesicles, DMPE/DPPG/CHOL (4.4/10.4/2.6 mg, 1/2/1 molar ratio) in a 1:1 mixture of CHCl3 and MeOH (1 ml) was used. […]
For leakage experiments with the lipid⊃CF vesicles, stock solutions (6 µl) were diluted with the respective buffer in a disposable plastic cuvette and gently stirred (total volume 2,000 µl, final lipid concentration 13 µM). CF fluorescence was monitored at λem = 517 nm (λex = 492 nm) as a function of time after addition of the respective activating or disrupting agent (cluster, WR7 or pyrenebutyrate) at 50 s, and Triton X-100 (24 µl 1.2% (wt/vol)) at 600 s, the latter to lyse the vesicles, for calibration. Fluorescence intensities were normalized to fractional emission intensity as I(t) = (It − I0)/(I∞ − I0), where I0 = It before disrupting agent addition and I∞ = It after Triton X-100 lysis. […]
Extended Data Fig. 1 Assays testing for stability vs leakage of the vesicles. a, Response of the HPTS/DPX assay towards a membrane-disrupting agent and chemical structures of the fluorescent dye HPTS and the quencher DPX. In this assay, large unilamellar vesicles are loaded with the HPTS/DPX probe/quencher pair, such that the fluorescence of HPTS is quenched. […]

The test system of data set [3] is adenocarcinoma human alveolar basal epithelial cells A549. Nature of the data set: MTT viability with B12Br12^2− or R8. The note with it: 3 h in HKR + 24 h medium, mean of five measurements. Details: dose or concentration left out as unconfirmed. The protocol:
(§1) The incubation mixtures were replaced with DMEM + 10% FBS + 0.5 mg ml^–1 MTT. For the viability assays in the presence of B12Br12^2− or R8, HeLa, GT1-7, ARPE-19 and A549 cells were seeded the day before in 96-well plates at 6,000 cells per well. Cells were incubated with B12Br12^2− or R8 dissolved in HKR buffer for 3 h and, thereafter, incubated for 24 h with complete medium before incubating with complete medium and 0.5 mg ml^−1 MTT. For viability studies in the presence of MMAF, HeLa cells were incubated with MMAF and B12Br12^2− diluted in DMEM (without serum or antibiotics) for 3 h. Cells were washed with 0.1 mg ml^−1 heparin and further incubated for 21 h in complete medium and 2 h in complete medium containing 0.5 mg ml^−1 MTT. For all types of assays, after 2 h of incubation, the medium was carefully removed, and formazan crystals dissolved by addition of DMSO. The absorbance at 570 nm was measured with a plate reader (Tecan Infinite F200Pro) and the data normalized to the value of untreated cells (100% viability). Data were analysed with R (v. 4.0.3)[54].
(§2) Cells were incubated with 7 µM phalloidin-TRITC (red) in the absence (left) and presence of 50 µM ^AcR8 (middle) or 50 µM of B12Br12^2− cluster (right) in HKR buffer for 3 h, subsequently stained with Hoechst (blue), washed with DMEM without phenol red, and imaged by confocal fluorescence microscopy; bright-field images in insets. Micrographs from each cell line were processed independently, experiments were performed twice. e, MTT viability assay of the corresponding cell lines (HeLa, GT1-7, ARPE-19 and A549, from left to right) at different concentrations (0, 25, 75, 250, and 500 µM) of B12Br12^2− (black) or ^AcR8 (red); data are mean ± s.d. of five measurements. f, Confocal images of HeLa cells after incubation with 500 nM phalloidin-TRITC and different concentrations B12Br12^2−; the images correspond to those of Fig. 4 in the main text, but are shown with increased brightness to facilitate observation of the actin filaments. Representative images of two biological replicates. All scale bars are […], except for panel f (50 µm). Source data

The test system of data set [4] is HeLa cells. Nature of the data set: MTT viability with B12Br12^2− or R8. Also on record: dose or concentration left out as unconfirmed. The following applies: 3 h in HKR + 24 h medium, mean of five measurements. The protocol:
as §1, §2

What is called EC50 is the concentration that produces a half-maximal response. Regarding B12Br12^2−, the “TAMRA-R8 fluorescence pattern in cells in presence of cluster” value in data set [1] is “diffuse peptide fluorescence”. In addition, the EC50 in data set [2] was found to be 960 ± 100 µM. Moreover, the mean_viability in data set [3] (25 as printed) was found to be 106.289%; in data set [3] (75 as printed), 109.955%; in data set [4] (25 as printed), 104.374%; in data set [4] (75 as printed), 100.045%.

Source of the values: PMC8942850, “Boron clusters as broadband membrane carriers” (Nature, 2022).
